In patent publication US20190111055A1, “USE OF PHARMACEUTICAL COMPOSITION FOR THE TREATMENT OF SKIN ERYTHEMA IN POIKILODERMAS” (priority 2016, published 2019):

Tests used:
[1] = system: skin lesions of Poikiloderma of Civatte
Source text: FIG. 1 represents the delimited area of the patient's skin to be treated with a composition described in this document, containing an alpha-adrenergic agonist, namely brimonidine gel 0.33%, prior to applying the medicine.
FIG. 2 represents the area of the patient's skin to be treated with the composition mentioned above, immediately after applying the medicine.
Drawing 1 represents the area selected and marked with white pencil for applying a product containing the alpha-adrenergic agonist brimonidine at 0.33% on skin lesions of Poikiloderma of Civatte; this drawing represents the area prior to application. Drawing 2 represents the moment immediately after applying the composition, which was restricted to the small area marked on the skin of the patient.

[2] = clinical studies for acute erythema or diseases such as rosacea; cited from earlier work

For `Brc1c(NC2=NCCN2)ccc2nccnc12` [brimonidine], the “color of the skin affected by Poikiloderma of Civatte” value ([1]; brimonidine at 0.33%, topical, marked skin area, 40 minutes after applying) is listed as “effective improvement in the color of the skin”, the “redness of the Poikiloderma of Civatte erythema” value ([1]; topical application of the product) is listed as “visibly improves the redness” and the “adverse events (most common: erythema, redness, burning sensation, contact dermatitis)” value [2] is listed as “less than or equal to 1%”.
